Test: mn = molality of the nth substance listed, in mol/kg
Conditions: 101.3 kPa, Liquid, Alternating current cell with electrodes

O=C(O)c1ccc(O)c(O)c1 [3,4-dihydroxybenzoic acid] + O
electrical conductivity [S/m]
Conditions	m1 = 0.001	m1 = 0.002	m1 = 0.004	m1 = 0.006	m1 = 0.008	m1 = 0.01
288.15 K	0.0048	0.007	0.0102	0.0126	0.0146	0.0164
291.15 K	0.0051	0.0074	0.0107	0.0132	0.0154	0.0173
294.15 K	0.0054	0.0078	0.0113	0.014	0.0162	0.0182
298.15 K	0.0058	0.0084	0.0121	0.015	0.0174	0.0196
